Structures are written as SMILES.

In test [1] the target is T1, SARS2 M^pro P168S (Severe acute respiratory syndrome coronavirus 2, UniProt P0DTD1, P3431S). The following applies: cited from earlier work.
The next test addresses SARS2 M^pro M49I (Severe acute respiratory syndrome coronavirus 2, UniProt P0DTD1, M3312I). The note with it: cited from earlier work.
In a further test the test system is SARS2 M^pro P168G. The following applies: cited from earlier work.
The target in test [2] is T1, SARS2 M^pro P168S. It is filed as cell-based, SARS-CoV-2.
The test system of test [3] is recombinant SARS2 encoding ∆P168/A173V M^pro. It is filed as cell-based, SARS-CoV-2. The note with it: read-out: IC50 (95% CI).
Test [4] relates to recombinant SARS2 encoding A173V M^pro. The class given is cell-based, SARS-CoV-2. The following applies: read-out: IC50 (95% CI).
For test [5], the system named is recombinant SARS2 encoding ∆P168 M^pro. Briefly: microbe, parasite or virus in culture. The class given is cell-based. The following applies: […], A549-hACE2 cells.

For `CC(C)(C)NC(=O)N[C@H](C(=O)N1C[C@H]2[C@@H]([C@H]1C(=O)NC(CC1CCC1)C(=O)C(N)=O)C2(C)C)C(C)(C)C` (stereo partly drawn) [boceprevir], the “effect of amino acid change on inhibitor susceptibility” value at SARS2 M^pro P168S [1] and in the test on SARS2 M^pro P168G was “improve susceptibility” in each case. Also, the “effect of substitution on inhibitor susceptibility” value on SARS2 M^pro M49I is “little effect”. In addition, the “fold increase in susceptibility” value on SARS2 M^pro P168S [2] worked out at 5.5 fold.

For orientation: IC50 means the point on the concentration scale where inhibition reaches its midpoint. For `Cn1cnc(Cn2c(=O)[nH]/c(=N\c3cc4cn(C)nc4cc3Cl)n(Cc3cc(F)c(F)cc3F)c2=O)n1` [Ensitrelvir, ensitrelvir], the IC50 in test [3] was determined as 3.3 nM; in test [4], 7.8 nM.

For the compound `CCC(CC)COC(=O)[C@H](C)N[P@](=O)(OC[C@H]1O[C@@](C#N)(c2ccc3c(N)ncnn23)[C@H](O)[C@@H]1O)Oc1ccccc1` [Remdesivir, remdesivir], the IC50 in test [3] was 1500 nM; in test [4] it was 1300 nM. Moreover, the “Fold change in antiviral EC50” value in test [5] is given as 0.9 fold; in test [5] (listed as remdesivir) it was “none of the mutants alter susceptibility”.

As for `CC(C)C[C@H](NC(=O)OCc1ccccc1)C(=O)N[C@@H](C[C@@H]1CCNC1=O)C(O)S(=O)(=O)[O-].[Na+]` (stereo partly drawn) [GC376], in the test with SARS2 M^pro P168G, the “effect of amino acid change on inhibitor susceptibility” value is recorded as “no effect”.

As for `CC(C)(C)[C@H](NC(=O)C(F)(F)F)C(=O)N1C[C@H]2[C@@H]([C@H]1C(=O)N[C@H](C#N)C[C@@H]1CCNC1=O)C2(C)C` [Nirmatrelvir, nirmatrelvir], in test [4], the IC50 stood at 36 nM.

Source of the values: PMC10058310 (Science Advances, 2023).
